According to US20030125283A1, “Therapy of proliferative disorders by direct irradiation of cell nuclei with tritiated nuclear targetting agents” (priority 2002, published 2003):
Each block holds one compound with its values, some of them ahead of it.

How the values were obtained:
[1] = tested on: 4047 colon cancer cells, BT-20 and MCF-7 breast cancer cell lines; assay: Killing of tumor cells in vitro, cell counts and trypan blue viability; type: cell-based, rat (4047), human (BT-20
Method: In-vitro experiments were performed using cultured 4047 colon cancer cells as described in Gatenby, R A and Taylor D D (1990) Cancer Res. 50: 7997-8001. 4047 cells (2×10^4) were placed in each well of a 6-well plate and incubated overnight in 1 ml of RPMI-1640 media with 10% fetal bovine serum (FBS). The cells were divided into 4 groups as follows:
Group 4: incubated in unlabelled thymidine at concentrations 1, 2, 3, and 4 mM (so that concentration of thymidine was identical to that of the labeled thymidine in Group 3).
Each group was incubated for 24 hours and then washed 3 times in sterile physiologic saline (PBS). One milliliter of unlabelled media was added and the cells incubated for an additional 48 hours. Subsequently, the cells were washed with PBS, lifted with trypsin, and counted with a hematocytometer. Percent cell viability was determined by exclusion of trypan blue. All measurements were performed in triplicate. Once a dose-response curve was established in the 4047 cell line, identical experiments were conducted with the BT-20 and MCF-7 breast cancer cell lines.

[2] = tested on: BT20 human breast cancer tumors; assay: Efficacy of a multiple dose regimen, intratumoral versus i.v. (Example 9); type: in vivo, female nude mice
Method: To accomplish this, the superposition method of Sharget and Yu, supra, is used to extend the two compartment pharmacokinetic model presented in Example 6 from the single dose to the multidose case. […] Using the superposition method, the maximum and minimum of the multi-dose regimen can be averaged together to give an estimate of the mean concentration in the tumor during multiple injections (Sharget and Yu, supra).
This dose regimen is tested experimentally as follows.
60 4-6 weeks old female nude mice in 2 groups of 30 mice are used. Each group of 30 mice is further divided into two subgroups (10 control mice and 20 treatment mice). As before, the treatment mice will be divided into subgroups that consist of similar distribution of tumor volumes. In each treatment subgroup, 10×10^6 BT20 human breast cancer cells are inoculated subcutaneously in flanks of the mice as in Example 4. […] Tumors are grown to 300-500 mm^3 in volume.
The mice from one treatment subgroup receive an intratumoral injection of 16 μCi/20 μl normal saline (a dose of 32 μCi/gram of tumor). The dose is repeated every 7 days for a total of 3 doses.

[3] = tested on: Human BT-20 breast cancer tumors; assay: Preliminary in vivo dose-response curve, single intratumoral injections (Example 8); design: species or system Nu/Nu female nude mice; conditions: single intratumoral injection; theoretical
Source text: Six experimental groups of 18 4-6 week old Nu/Nu female nude mice (Charles River Laboratory, Wilmington, Mass.) are used. In each of the six groups an additional group of 6 mice serves as an uninoculated control. Thus the total number of experimental mice is 108 and total number of uninoculated control mice is 36.
Each experimental group is then divided into two subgroups: one treatment subgroup of 12 mice and one untreated (but inoculated) control subgroup of six mice. […] Because the tumors have variable growth rates, subgroups are chosen such that the mean tumor volume and standard deviation are similar for each subgroup. […]
The mice are monitored daily and the tumors measured daily by microcaliper for a minimum of 3 weeks or until tumor re-growth begins. Tumor volumes are calculated as in Example 2. Three daily tumor volumes are measured for the first group so that the error in the volume measurement can be determined as in Example 4. The mean volumes and standard deviations are calculated and growth rate curves are monitored during the experiment. The data are expressed as percent difference of the tumor volume at any given time point to its pre-injection volume.
Tumor volume data is analyzed as described above in the in Example 4 by calculating percent tumor reduction and initial tumor volume. Systemic toxicity is not directly measured, but is monitored as described above in Example 4. […]

BT-20 tumor xenografts = assay: Reduction in tumor volume in the half-life study (Example 7); type: in vivo, Nu/Nu female nude mice; conditions: each treatment subgroup, intratumoral 4 to 50 μCi/g tumor
Method: BT-20 tumor cells (10 million cells in 0.2 ml PBS) are inoculated into the right flank of each mouse as in Example 4 above. The tumors are grown to volumes of 300-500 mm^3 over the course of 3-4 weeks.
After tumors in all mice have reached the required 300-500 mm^3 volume, each group of 60 is divided into ten subgroups of six animals each.
Reduction in tumor volume is estimated as in Example 4 for each treatment subgroup over the course of the experiment. The data is analyzed by calculating the percentage of tumor reduction as in Example 4. The error in this measurement is determined from the measured standard deviation and the standard formula for calculating the error for a ratio given above in Equation 1. Systemic toxicity is not directly measured, but is monitored as described above in Example 4.

[4] = mouse, in vivo
Method: In the treatment and control groups, 10×10^6 BT-20 human breast cancer cells are inoculated subcutaneously into the flanks of the mice. Animal weights are recorded daily and animals are closely monitored for signs of illness. Approximate tumor volumes are measured every other day using calipers to measure the height (H), width (W), and length (L) of each tumor. Tumor volumes are calculated according to the formula for volume of an ellipsoid V=πHWL/6. Tumors grow to 300-500 mm^3 in approximately 3-4 weeks after inoculation. A set of 6 measurements per day is made on a single tumor in the control group on one day of each week to determine the standard deviation versus volume in the volume measurements.
Tumor growth is monitored for a total of 4 weeks, whereupon the mice are sacrificed and the tumors and other tissue are harvested.
Lines are drawn along the anterior-posterior length of the harvested tumors. In addition, the top, left and right of the harvested tumors is marked. […] A portion of the sample in is placed in Hionic-Fluor LSC cocktail and the radioactivity counted in a scintillation counter. […]
Ten to fifteen microliters of the dissolved tissue or is spotted on a silica gel TLC plate, and the plate is placed in a chromatography chamber containing ˜200 ml of eluant so the dissolved tissue sample is just above the eluant surface. […] The radioactivity is counted in the scintillation counter. […]

[5] = Caro, supra; cited from earlier work

share of injected dose retained in the tumor [4]: about 10%
SMILES: Cc1cn([C@H]2C[C@H](O)[C@@H](CO)O2)c(=O)[nH]c1=O [^3H-thymidine]
antitumor effect ([1]; 0.1 μCi/ml (concentration used only with 4047 cells)): significant antitumor effect
viable tumor cells identified ([1]; populations exposed to 1.0 μCi/ml or greater, in most experiments): few viable tumor cells
r, tumor regression ([2]; i.v. injection 16 μCi (~800 μCi/kg body wt.) once a week for three weeks, after three doses): approximately 0.8
r, tumor regression ([2]; intratumoral 16 μCi/20 μl saline (32 μCi/gram of tumor) every 7 days, 3 doses): approximately zero
ED90, minimal effective dose for eradicating tumors in 90% of the treated mice [3]: 16 μCi/g tumor
tumor volume (BT-20 tumor xenografts): significant reduction in tumor volume

SMILES: [3H] [tritium]
effective biological half-life [5]: approximately 12 days

SMILES: [3H]O[3H] [^3H-water, reference compound]
cytotoxicity ([1]; 0.1-3.0 μCi/ml media, 24 hours incubation, then 48 hours in unlabelled media, ^3H-water effect particularly above 1 μCi/ml, ^3H-thymidine compared with ^3H-water at each dose (p<<0.01)): slight cytotoxicity

SMILES: Cc1cn([C@H]2C[C@H](O)[C@@H](CO)O2)c(=O)[nH]c1=O [Unlabelled thymidine, thymidine, reference compound]
effect on tumor growth ([1]; unlabelled thymidine 1, 2, 3, and 4 mM, 24 hours incubation, then 48 hours in unlabelled media): no effect on tumor growth
